One may read the IC50 as the concentration at which inhibition is half-maximal.

Holding throughout (format): biochemical
For assay [1], the target named is AKT (Homo sapiens, UniProt P31749). Description: RBC HotSpot kinase assay (33P-ATP, P81 filter-binding), AKT. The procedure, abridged:
(§1)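 Compounds were run as single 10-point titrations to give IC50 values in nM. Each kinase was mixed with substrate and cofactors in 20 mM Hepes pH 7.5 reaction buffer with 1% DMSO, then exposed to compound for 20 min. 33P-ATP was added for a 2 h room-temperature reaction, with activity measured by P81 filter binding.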

The target in assay [2] is T1, LATS2 (Homo sapiens, UniProt Q9NRM7).
T1 sequence (Q9NRM7 1-1088): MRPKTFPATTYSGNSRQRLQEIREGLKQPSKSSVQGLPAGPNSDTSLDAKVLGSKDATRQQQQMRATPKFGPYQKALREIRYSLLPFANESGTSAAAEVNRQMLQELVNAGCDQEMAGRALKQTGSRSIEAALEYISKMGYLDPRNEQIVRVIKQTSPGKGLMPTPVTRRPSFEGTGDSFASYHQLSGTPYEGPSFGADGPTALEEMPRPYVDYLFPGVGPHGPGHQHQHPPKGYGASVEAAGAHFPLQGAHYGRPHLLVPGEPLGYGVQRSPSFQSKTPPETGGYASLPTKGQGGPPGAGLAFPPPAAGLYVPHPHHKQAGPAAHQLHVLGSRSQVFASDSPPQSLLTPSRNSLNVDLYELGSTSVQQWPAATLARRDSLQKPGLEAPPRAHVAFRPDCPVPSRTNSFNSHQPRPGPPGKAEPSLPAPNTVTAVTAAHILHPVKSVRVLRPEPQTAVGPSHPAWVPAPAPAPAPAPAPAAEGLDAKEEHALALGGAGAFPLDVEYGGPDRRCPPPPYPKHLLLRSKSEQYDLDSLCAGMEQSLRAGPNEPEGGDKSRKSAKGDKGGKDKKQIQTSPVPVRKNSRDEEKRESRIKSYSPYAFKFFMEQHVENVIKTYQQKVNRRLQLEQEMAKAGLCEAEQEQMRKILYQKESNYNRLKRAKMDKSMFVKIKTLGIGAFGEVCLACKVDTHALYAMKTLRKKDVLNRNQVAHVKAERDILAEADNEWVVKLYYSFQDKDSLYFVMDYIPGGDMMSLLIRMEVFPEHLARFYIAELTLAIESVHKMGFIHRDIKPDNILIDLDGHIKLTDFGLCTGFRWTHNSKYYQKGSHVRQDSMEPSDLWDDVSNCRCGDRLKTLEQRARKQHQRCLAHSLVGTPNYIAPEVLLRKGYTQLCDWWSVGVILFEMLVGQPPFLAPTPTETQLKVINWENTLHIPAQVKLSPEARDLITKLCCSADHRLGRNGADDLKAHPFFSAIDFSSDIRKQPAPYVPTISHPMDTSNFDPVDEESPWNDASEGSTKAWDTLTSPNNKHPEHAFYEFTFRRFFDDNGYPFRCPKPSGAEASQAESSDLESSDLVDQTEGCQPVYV
The experiment in a line: RBC HotSpot kinase assay (33P-ATP, P81 filter-binding), LATS2. The method in brief:
as §1

The target of assay [3] is T2, LATS1 (Homo sapiens, UniProt O95835).
T2 sequence (O95835 1-1130): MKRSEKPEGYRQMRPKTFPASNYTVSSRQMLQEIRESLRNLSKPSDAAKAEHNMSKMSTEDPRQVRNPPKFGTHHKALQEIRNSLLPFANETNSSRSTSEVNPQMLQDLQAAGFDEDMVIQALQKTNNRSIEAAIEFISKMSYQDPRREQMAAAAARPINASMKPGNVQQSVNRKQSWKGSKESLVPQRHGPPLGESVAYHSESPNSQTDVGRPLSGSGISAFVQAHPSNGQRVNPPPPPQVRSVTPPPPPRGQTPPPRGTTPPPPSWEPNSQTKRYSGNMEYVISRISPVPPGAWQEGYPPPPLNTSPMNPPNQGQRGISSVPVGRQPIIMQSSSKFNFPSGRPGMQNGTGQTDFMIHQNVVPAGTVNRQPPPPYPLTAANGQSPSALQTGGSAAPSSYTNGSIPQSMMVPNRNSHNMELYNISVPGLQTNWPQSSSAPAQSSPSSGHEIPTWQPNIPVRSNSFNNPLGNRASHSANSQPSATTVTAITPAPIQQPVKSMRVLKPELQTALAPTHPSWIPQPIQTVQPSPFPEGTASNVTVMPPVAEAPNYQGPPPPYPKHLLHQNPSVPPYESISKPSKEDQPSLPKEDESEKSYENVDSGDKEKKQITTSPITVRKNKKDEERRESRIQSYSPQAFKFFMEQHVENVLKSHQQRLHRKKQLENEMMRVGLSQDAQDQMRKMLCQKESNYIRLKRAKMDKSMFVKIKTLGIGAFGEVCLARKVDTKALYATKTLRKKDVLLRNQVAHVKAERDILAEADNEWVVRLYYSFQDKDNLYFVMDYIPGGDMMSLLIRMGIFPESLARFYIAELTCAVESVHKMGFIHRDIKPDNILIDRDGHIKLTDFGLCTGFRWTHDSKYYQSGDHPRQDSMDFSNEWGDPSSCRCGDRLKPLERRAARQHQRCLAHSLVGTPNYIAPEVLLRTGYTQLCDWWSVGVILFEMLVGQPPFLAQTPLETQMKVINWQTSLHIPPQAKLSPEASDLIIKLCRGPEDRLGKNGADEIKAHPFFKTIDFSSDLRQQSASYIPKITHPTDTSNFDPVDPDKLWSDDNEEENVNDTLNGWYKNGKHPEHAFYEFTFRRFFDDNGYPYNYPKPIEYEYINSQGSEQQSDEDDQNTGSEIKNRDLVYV
Description: RBC HotSpot kinase assay (33P-ATP, P81 filter-binding), LATS1. The method in brief: as §1

Setting [4] is: Table 28, biochemical kinase assay, read-out: AKT IC50.
Setting [5] is: Table 28, biochemical kinase assay, read-out: LATS2 IC50.
Where [6] appears, read: Table 28, biochemical kinase assay, read-out: LATS1 IC50.

Read-outs that look alike come from different tables or passages of the source. Where only a bound is given, the exact number is not on record here.

AKT, sequence (P31749 whole entry): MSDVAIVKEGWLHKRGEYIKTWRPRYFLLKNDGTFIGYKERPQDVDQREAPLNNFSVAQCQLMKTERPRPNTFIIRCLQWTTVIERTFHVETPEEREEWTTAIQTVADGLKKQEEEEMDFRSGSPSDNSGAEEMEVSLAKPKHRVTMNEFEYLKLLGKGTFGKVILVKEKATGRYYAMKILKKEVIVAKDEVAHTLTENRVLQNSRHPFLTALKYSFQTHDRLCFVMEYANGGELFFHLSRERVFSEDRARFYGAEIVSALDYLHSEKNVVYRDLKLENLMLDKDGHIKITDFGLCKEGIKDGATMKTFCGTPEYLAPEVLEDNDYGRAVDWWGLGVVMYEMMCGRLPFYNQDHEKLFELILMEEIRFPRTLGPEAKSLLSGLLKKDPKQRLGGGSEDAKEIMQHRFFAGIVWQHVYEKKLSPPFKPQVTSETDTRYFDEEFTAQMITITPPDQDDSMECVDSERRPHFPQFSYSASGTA

For the compound `FC(F)(F)c1cc(C2CCNCC2)ccc1-c1ccnc2[nH]ccc12` [Compound 182, 4-(4-(piperidin-4-yl)-2-(trifluoromethyl)phenyl)-1H-pyrrolo[2,3-b]pyridine], the IC50 in assay [1] (setting [4]) was greater than 10000 nM; in assay [2] (setting [5]), 1770 nM; in assay [3] (setting [6]) it was 1570 nM.

`CC1CNCCC1c1ccc(-c2ccnc3[nH]ccc23)cc1` (stereo not drawn) [Compound 185, 4-(4-(3-methylpiperidin-4-yl)phenyl)-1H-pyrrolo[2,3-b]pyridine]: the IC50 in assay [1] (setting [4]) was 2110 nM; in assay [2] (setting [5]), 57 nM; in assay [3] (setting [6]), 70 nM.

For the compound `Fc1cnc2[nH]ccc2c1-c1ccc(C2CCNCC2)cc1` [Compound 186, 5-fluoro-4-(4-(piperidin-4-yl)phenyl)-1H-pyrrolo[2,3-b]pyridine], the IC50 in assay [1] (setting [4]) was 2050 nM; in assay [2] (setting [5]), 68 nM; in assay [3] (setting [6]) it was 36 nM.

As to `c1cc(-c2ccc(C3CCNCC3)cc2)c2cc[nH]c2n1` [Compound 188, 4-(4-(piperidin-4-yl)phenyl)-1H-pyrrolo[2,3-b]pyridine], the IC50 in assay [1] (setting [4]) turned out to be 2200 nM; in assay [2] (setting [5]), 75 nM; in assay [3] (setting [6]) it was 70 nM.

`Fc1c[nH]c2nccc(-c3ccc(C4(C(F)(F)F)CCNCC4)cc3)c12` [Compound 189, 3-fluoro-4-(4-(4-(trifluoromethyl)piperidin-4-yl)phenyl)-1H-pyrrolo[2,3-b]pyridine]: the IC50 in assay [1] (setting [4]) is 18 nM; in assay [2] (setting [5]), 14 nM; in assay [3] (setting [6]) it was 11 nM.

In the case of `Cc1nnc(C2(c3ccc(-c4ccnc5[nH]cc(F)c45)cc3)CCNCC2)o1` [Compound 190, 2-(4-(4-(3-fluoro-1H-pyrrolo[2,3-b]pyridin-4-yl)phenyl)piperidin-4-yl)-5-methyl-1,3,4-oxadiazole], the figures for the concentration for half-maximal inhibition (IC50) in assay [1] (setting [4]), in assay [2] (setting [5]) and in assay [3] (setting [6]) were 18 nM, 17 nM and 20 nM, respectively.

With `Fc1c[nH]c2nccc(-c3ccc(C4(c5nnco5)CCNCC4)cc3)c12` [Compound 191, 2-(4-(4-(3-fluoro-1H-pyrrolo[2,3-b]pyridin-4-yl)phenyl)piperidin-4-yl)-1,3,4-oxadiazole], the values for the half-inhibitory concentration (IC50) in assay [1] (setting [4]), in assay [2] (setting [5]) and in assay [3] (setting [6]) were 200 nM, 43 nM and 57 nM, respectively.

On to `Cc1cnc(C2(c3ccc(-c4ccnc5[nH]cc(F)c45)cc3)CCNCC2)o1` [Compound 192, 2-(4-(4-(3-fluoro-1H-pyrrolo[2,3-b]pyridin-4-yl)phenyl)piperidin-4-yl)-5-methyloxazole], for which the IC50 in assay [1] (setting [4]) came to 25 nM; in assay [2] (setting [5]), 20 nM; in assay [3] (setting [6]) it was 29 nM.

`COC(=O)C1(c2ccc(-c3ccnc4[nH]cc(F)c34)cc2)CCN(C)CC1` [Compound 193, Methyl 4-(4-(3-fluoro-1H-pyrrolo[2,3-b]pyridin-4-yl)phenyl)-1-methylpiperidine-4-carboxylate]: the IC50 in assay [1] is 128 nM; in assay [2] it was 26 nM; in assay [3], 53 nM.

With `O=C(O)C1(c2ccc(-c3ccnc4[nH]cc(F)c34)cc2)CCNCC1` [Compound 194, 4-(4-(3-fluoro-1H-pyrrolo[2,3-b]pyridin-4-yl)phenyl)piperidine-4-carboxylic acid], the IC50 in assay [1] (setting [4]), in assay [2] (setting [5]) and in assay [3] (setting [6]) was greater than 10000 nM in each case.

Consider `Cc1nnc(C2(c3ccc(-c4ccnc5[nH]cc(F)c45)cc3)CCN(C(=O)OC(C)(C)C)CC2)o1` [Compound 195, tert-butyl 4-(4-(3-fluoro-1H-pyrrolo[2,3-b]pyridin-4-yl)phenyl)-4-(5-methyl-1,3,4-oxadiazol-2-yl)piperidine-1-carboxylate], for which the IC50 in assay [1] (setting [4]) is greater than 10000 nM; in assay [2] (setting [5]), 3520 nM; in assay [3] (setting [6]) it was 5790 nM.

For `CC(C)(C)OC(=O)N1CCC(c2ccc(-c3ccnc4[nH]cc(F)c34)cc2)(c2nnco2)CC1` [Compound 196, tert-butyl 4-(4-(3-fluoro-1H-pyrrolo[2,3-b]pyridin-4-yl)phenyl)-4-(1,3,4-oxadiazol-2-yl)piperidine-1-carboxylate], the 50% inhibitory concentration (IC50) in assay [1] (setting [4]), in assay [2] (setting [5]) and in assay [3] (setting [6]) was greater than 10000 nM each time.
